Test system: cleavage of c-Met by γ-secretase
Experiment: Analysis of c-Met processing in c-Met-transfected 293/EBNA-1 cell strain (Western blotting with anti-HA antibody)
Format: cell-based, rat c-Met in HEK293 (293/EBNA-1) cells
Design: dose or concentration left out as unconfirmed
Details: Compound E added to culture broth, cultured another day, rat c-Met-HA transfected 293/EBNA-1 (HEK293) cells
Protocol: Whether or not c-Met is a substrate for γ-secretase was evaluated using HEK293 cells expressing a gene encoding c-Met with an HA tag added to its C-terminus, in the presence of a γ-secretase inhibitor. As the γ-secretase inhibitor, (2S)-2-{[(3,5-difluorophenyl)acetyl]amino}-N-[(3S)-1-methyl-2-oxo-5-phenyl-2,3-dihydro-1H-1,4-benzodiazepin-3-yl]propanamide (hereinafter, sometimes referred to as “Compound E”) (Alexis Biochemicals) was used.
293/EBNA-1 cell strain (Invitrogen) was cultured in 10% FBS (Hyclone)/DMEM (Invitrogen) under 5% CO2 at 37° C., followed by transfection thereinto of the gene encoding rat c-Met with an HA tag added to its C-terminus using Lipofectamine 2000 (Invitrogen). After one day culture under the same conditions, […] Compound E (Alexis Biochemicals) was added to the culture broth. Cells were cultured for another day under the same conditions. Then, the transfected HEK293 cells were collected with PBS (Sigma) and sonicated with a sonicator (Taitec VP-5S) to disrupt cells. Then, the quantity of protein was determined with Protein Assay Kit (BioRad). Samples (2 μl each) were taken from proteins obtained from Compound E-added cells and Compound E-not added cells, respectively, and subjected to SDS-PAGE, followed by Western blotting with an anti-HA antibody (Roche) (final concentration: 0.2 μg/ml). […]

C[C@H](NC(=O)Cc1cc(F)cc(F)c1)C(=O)N[C@H]1N=C(c2ccccc2)c2ccccc2N(C)C1=O [Compound E, (2S)-2-{[(3,5-difluorophenyl)acetyl]amino}-N-[(3S)-1-methyl-2-oxo-5-phenyl-2,3-dihydro-1H-1,4-benzodiazepin-3-yl]propanamide]
c-Met undegraded product (CTF band around 50 kDa) on Western blot: a band around 50 kDa (CTF: C terminal fragment) was accumulated specifically as a c-Met undegraded product

From patent US20090191580A1, “METHOD OF SCREENING USING c-MET, A NOVEL SUBSTRATE FOR GAMMA-SECRETASE” (Eisai R & D Management Co., Ltd., priority 2007, published 2009)
